# Assay results reported in patent publication US9814727B2, “Piperazine phenothiazine derivatives for treating spasticity” (UNIVERSITE D'AIX-MARSEILLE, priority 2014, dated 2017).
# System: KCC2
# Assay: FluxOR fluorescence based thallium (Tl+) influx assay on KCC2-expressing HEK293 cells
# Type: cell-based
# Settings: HEK KCC2 compared to WT HEK cells, non-cytotoxic dose range
# Description: Wild-type or KCC2-expressing Human Embryonic Kidney (HEK) 293 cells (provided by Prof. Eric Delpire Department of Anesthesiology, Vanderbilt University Medical Center, Nashville, Tenn.) were grown up to 80-90% confluence in DMEM/Ham's F-12 (1:1) (Life technologies, Carlsbad, Calif., USA) supplemented with 10% FBS (Life technologies), 50 units/mL penicillin, and 50 µg/mL streptomycin (Life technologies). KCC2-expressing clones were under puromycin selection (20 μg/ml, Life technologies).
# The FluxOR™ potassium ion channel assay (Life Technologies Carlsbad, Calif., USA) was performed as outlined in the product information sheet and an earlier published study (Delpire et al., 2009, Proc. Natl. Acad. Sci. USA, 106, 5383-88) to assess KCC2 activity, and adapted to semi-automated high throughput screening. The experiment was performed in the presence of ouabain 200 μM and bumetanide 10 μM in all buffers to block the Na^+/K^+ pump and NKCC1 cotransporters, respectively. Briefly, cells in suspension were incubated in the loading buffer containing the dye at room temperature for 90 min (1/2000 dilution of FluxOR reagent) at the density of 100.000 cells/75 μl, then centrifugated and resuspended in Assay buffer at the same cell density. A number of 100.000 cells (75 μl) were manually handled in each well to the 96-wells black-walled, μclear-bottom plates (Greiner Bio-One, Monroe, N.C., USA) and 5 μl of chemical compounds 1-8 at different concentrations in PBS 1% DMSO (5, 30 and 50 μM) were added to the plates using the Biomek® NX Laboratory automation workstation (Beckman Coulter, Villepinte, France). After 15 minutes incubation, baseline fluorescent signal was measured with the Polarstar omega microplate reader (490 nm excitation and 520 nm emission, BMG Labtech). Then 20 μL per well of 5× thallium stimulus buffer (final concentrations: Tl^+: 2 mM, K^+: 10 mM) was injected and fluorescent signal was read 30 minutes later.
# For each plate, 2 columns were dedicated to controls (cell density range from 0.25 to 1.10^5 cells; loading buffer as blank; untreated or treated with NEM (33 μM, for 15 min) wild-type and KCC2-expressing HEK293 cells).
# Baseline fluorescent value was subtracted from the fluorescent value measured 30 min after stimulus buffer injection for each well, and this difference was normalized to the number of cells. […] Values converted to percentages such that the maximum of ratio is 100%.
smiles,measurement,value
"CN1CCN(CCCN2c3ccccc3Sc3ccc(Cl)cc32)CC1 [compound 2, 2-chloro-10-[3-(4-methyl-1-piperazinyl)propyl]-10H-phenothiazine]",specific activation of KCC2 across a dose range,activate specifically KCC2 in a dose dependant manner
